Values joined by “and” are separate entries in the source; they are usually repeats but may differ in a detail not shown here. Equal entries are not always repeated. Toxic doses and inconclusive results are not listed. Rule for the calls: active = survival T/C of 150% or more; inactive = T/C below 125% in these data.
Tested on: P388 leukemia ip, CD2F1 mice, survival T/C
Assay: NCI In Vivo Anticancer Drug Screen. Data for tumor model P388 Leukemia (intraperitoneal) in CD2F1 (CDF1) mice
Details: endpoint: median survival time, higher = longer survival
Method in brief: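 Mice carrying the transplanted tumor received test compound or vehicle. Survival was recorded in each group, and the value is the treated-group measurement divided by that of the vehicle-treated control group.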

[1] = dose: 100.0 mg/kg/injection, schedule: Q04DX003 (ip), vehicle: saline with Tween-80
[2] = dose: 50.0 mg/kg/injection, schedule: Q01DX005 (ip), vehicle: saline with Tween-80
[3] = dose: 100.0 mg/kg/injection, schedule: Q01DX005 (ip), vehicle: saline with Tween-80
[4] = dose: 200.0 mg/kg/injection, schedule: Q01DX005 (ip), vehicle: saline with Tween-80
[5] = dose: 50.0 mg/kg/injection, schedule: Q01DX005 (ip), vehicle: Klucel (hydroxypropylcellulose) (HPC)
[6] = dose: 100.0 mg/kg/injection, schedule: Q01DX005 (ip), vehicle: Klucel (hydroxypropylcellulose) (HPC)
[7] = dose: 200.0 mg/kg/injection, schedule: Q01DX005 (ip), vehicle: Klucel (hydroxypropylcellulose) (HPC)
[8] = dose: 50.0 mg/kg/injection, schedule: Q01DX009 (ip), vehicle: saline with Tween-80
[9] = dose: 100.0 mg/kg/injection, schedule: Q01DX009 (ip), vehicle: saline with Tween-80
[10] = dose: 200.0 mg/kg/injection, schedule: Q01DX009 (ip), vehicle: saline with Tween-80
[11] = dose: 400.0 mg/kg/injection, schedule: Q01DX009 (ip), vehicle: saline with Tween-80

Measured: T/C

O=[N+]([O-])c1cccnc1Sc1ncccn1
inactive: [1] 100 % of control | dose: 200.0 mg/kg/injection, schedule: Q04DX003 (ip), vehicle: saline with Tween-80 100 % of control | dose: 400.0 mg/kg/injection, schedule: Q04DX003 (ip), vehicle: saline with Tween-80 100 % of control

Cc1ccc(S(=O)CF)cc1 (stereo unspecified)
inactive: [1] 107 % of control

COc1ccc2nc(C#N)sc2c1
inactive: dose: 60.0 mg/kg/injection, schedule: Q01DX005 (ip), vehicle: saline with Tween-80 86 % of control | dose: 120.0 mg/kg/injection, schedule: Q01DX005 (ip), vehicle: saline with Tween-80 92 % of control | dose: 240.0 mg/kg/injection, schedule: Q01DX005 (ip), vehicle: saline with Tween-80 100 % of control

CCN1N=Nc2ccccc2NC1=O
inactive: [2] 101 % of control | [3] 91 % of control | [4] 96 % of control

O=S(=O)(c1ccc(NC(=S)N/N=C/c2ccccc2O)cc1)N1CCCCC1
inactive: dose: 12.5 mg/kg/injection, schedule: Q01DX009 (ip), vehicle: olive oil, sesame oil, peanut oil 105 % of control | dose: 25.0 mg/kg/injection, schedule: Q01DX009 (ip), vehicle: olive oil, sesame oil, peanut oil 96 % of control | dose: 50.0 mg/kg/injection, schedule: Q01DX009 (ip), vehicle: olive oil, sesame oil, peanut oil 96 % of control | dose: 100.0 mg/kg/injection, schedule: Q01DX009 (ip), vehicle: olive oil, sesame oil, peanut oil 91 % of control | dose: 200.0 mg/kg/injection, schedule: Q01DX009 (ip), vehicle: olive oil, sesame oil, peanut oil 91 % of control | dose: 400.0 mg/kg/injection, schedule: Q01DX009 (ip), vehicle: olive oil, sesame oil, peanut oil 97 % of control

CC(=O)OC1(C)CC1(C)C (stereo unspecified)
inactive: [2] 100 % of control | [3] 98 % of control | [4] 98 % of control

COc1nc(Nc2ccccc2SC)nc(OC)n1
inactive: [2] 104 % of control | [3] 106 % of control | [4] 107 % of control

O=[N+]([O-])c1cc2c(ccc3cc(Br)ccc32)o1
inactive: [5] 87 % of control | [6] 92 % of control | [7] 92 % of control

O=[N+]([O-])O.[Cl-].[Cl-].[NH-]CC[NH-].[NH-]CC[NH-].[Rh+3]
inactive: dose: 12.5 mg/kg/injection, schedule: Q04DX003 (ip), vehicle: distilled water + Tween-80 106 % of control | dose: 25.0 mg/kg/injection, schedule: Q04DX003 (ip), vehicle: distilled water + Tween-80 99 % of control | dose: 50.0 mg/kg/injection, schedule: Q04DX003 (ip), vehicle: distilled water + Tween-80 108 % of control | dose: 100.0 mg/kg/injection, schedule: Q04DX003 (ip), vehicle: distilled water + Tween-80 111 % of control | dose: 200.0 mg/kg/injection, schedule: Q04DX003 (ip), vehicle: distilled water + Tween-80 102 % of control

COc1ccc2c(c1)CC(CN1CCC3(CC1)C(=O)NCN3c1ccccc1)O2 (stereo unspecified)
inactive: [8] 104 % of control | [9] 101 % of control | [10] 100 % of control

CC1(O)CC23CC(O)C4(O)C(CC(O)C4(C)C)C(C)(O)C2CCC1C3O (stereo unspecified)
inactive: dose: 0.25 mg/kg/injection, schedule: Q01DX009 (ip), vehicle: Klucel (hydroxypropylcellulose) (HPC) 97 % of control | dose: 0.5 mg/kg/injection, schedule: Q01DX009 (ip), vehicle: Klucel (hydroxypropylcellulose) (HPC) 103 % of control

CSC1(SC2=NCCN2)SC2(NCCN2)S1
inactive: dose: 200.0 mg/kg/injection, schedule: Q01DX001 (ip), vehicle: Klucel (hydroxypropylcellulose) (HPC) 86 % of control | dose: 400.0 mg/kg/injection, schedule: Q01DX001 (ip), vehicle: Klucel (hydroxypropylcellulose) (HPC) 90 % of control

O=C(CNNC(=S)Nc1cccc2ccccc12)c1cccc2c1Nc1ccccc1S2
inactive: dose: 50.0 mg/kg/injection, schedule: Q01DX009 (ip), vehicle: Klucel (hydroxypropylcellulose) (HPC) 101 % of control | dose: 100.0 mg/kg/injection, schedule: Q01DX009 (ip), vehicle: Klucel (hydroxypropylcellulose) (HPC) 103 % of control | dose: 200.0 mg/kg/injection, schedule: Q01DX009 (ip), vehicle: Klucel (hydroxypropylcellulose) (HPC) 101 % of control

O=[N+]([O-])c1cccc2c(S(=O)(=O)O)cccc12
inactive: dose: 50.0 mg/kg/injection, schedule: Q04DX003 (ip), vehicle: saline 90 % of control | dose: 100.0 mg/kg/injection, schedule: Q04DX003 (ip), vehicle: saline 100 % of control | dose: 200.0 mg/kg/injection, schedule: Q04DX003 (ip), vehicle: saline 90 % of control

O=C(O)c1ccccc1C(=O)Nc1ccccc1C(F)(F)F
inactive: dose: 178.0 mg/kg/injection, schedule: Q01DX009 (ip), vehicle: saline with Tween-80 110 % of control | dose: 266.0 mg/kg/injection, schedule: Q01DX009 (ip), vehicle: saline with Tween-80 104 % of control | [11] 101 % of control

CN(C)C1c2cc(Cl)ccc2-c2c(N)cc(Cl)cc21 (stereo unspecified)
inactive: [5] 103 % of control | [6] 99 % of control | [7] 91 % of control

Cc1cccc[c]1[Sn]([Cl])([O][Sn]([Cl])([c]1ccccc1C)[c]1ccccc1C)[c]1ccccc1C
inactive: dose: 0.19 mg/kg/injection, schedule: Q01DX005 (ip), vehicle: saline 110 % of control | dose: 0.39 mg/kg/injection, schedule: Q01DX005 (ip), vehicle: saline 114 % of control | dose: 1.56 mg/kg/injection, schedule: Q01DX005 (ip), vehicle: saline 124 % of control

COc1cc(C2Oc3c(OC)cc(CC4C(=O)OCC4Cc4ccc(OC)c(OC)c4)cc3C2CO)ccc1O (stereo unspecified)
inactive: dose: 2.5 mg/kg/injection, schedule: Q01DX009 (ip), vehicle: saline with Tween-80 104 % of control | dose: 5.0 mg/kg/injection, schedule: Q01DX009 (ip), vehicle: saline with Tween-80 102 % of control | dose: 10.0 mg/kg/injection, schedule: Q01DX009 (ip), vehicle: saline with Tween-80 101 % of control | dose: 20.0 mg/kg/injection, schedule: Q01DX009 (ip), vehicle: saline with Tween-80 101 % of control

N#C/C(=N\Nc1ccc(F)cc1)C(=O)C1CC1
inactive: dose: 15.0 mg/kg/injection, schedule: Q01DX005 (ip), vehicle: Klucel (hydroxypropylcellulose) (HPC) 100 % of control | dose: 30.0 mg/kg/injection, schedule: Q01DX005 (ip), vehicle: Klucel (hydroxypropylcellulose) (HPC) 106 % of control | dose: 60.0 mg/kg/injection, schedule: Q01DX005 (ip), vehicle: Klucel (hydroxypropylcellulose) (HPC) 98 % of control

Cc1cc(Br)c2ccccc2c1NS(=O)(=O)c1ccccc1
inactive: [9] 100 % of control | [10] 100 % of control | [11] 90 % of control

COc1ccc2c3c([nH]c2c1)C(C)=NCC3
inactive: dose: 50.0 mg/kg/injection, schedule: Q01DX005 (ip), vehicle: saline 100 % of control | dose: 100.0 mg/kg/injection, schedule: Q01DX005 (ip), vehicle: saline 105 % of control

COC(=O)/C=C/c1cccn1C(=O)c1c(Cl)cccc1Cl
inactive: [2] 97 % of control | [3] 98 % of control | [4] 87 % of control

CSC(Cl)=NC(=O)C(=O)N=C(Cl)SC
inactive: [8] 96 % of control | [9] 89 % of control

CCC[CH2][Sn]([CH2]CCC)[CH2]CCC.CCC[CH2][Sn]([CH2]CCC)[CH2]CCC
inactive: dose: 1.56 mg/kg/injection, schedule: Q04DX002 (ip), vehicle: saline with Tween-80 103 % of control | dose: 3.12 mg/kg/injection, schedule: Q04DX002 (ip), vehicle: saline with Tween-80 117 % of control | dose: 6.25 mg/kg/injection, schedule: Q04DX002 (ip), vehicle: saline with Tween-80 103 % of control and 109 % of control | dose: 100.0 mg/kg/injection, schedule: Q04DX003 (ip), vehicle: Klucel (hydroxypropylcellulose) (HPC) 118 % of control

COc1ccc2cc3[n+](cc2c1OC)CCc1cc2c(cc1-3)OCO2
inactive: dose: 1.25 mg/kg/injection, schedule: Q01DX009 (ip), vehicle: water 99 % of control and 110 % of control | dose: 2.5 mg/kg/injection, schedule: Q01DX009 (ip), vehicle: water 105 % of control | dose: 3.13 mg/kg/injection, schedule: Q01DX009 (ip), vehicle: Klucel (hydroxypropylcellulose) (HPC) 95 % of control | dose: 5.0 mg/kg/injection, schedule: Q01DX009 (ip), vehicle: water 110 % of control and 119 % of control | dose: 6.25 mg/kg/injection, schedule: Q01DX009 (ip), vehicle: Klucel (hydroxypropylcellulose) (HPC) 107 % of control | dose: 10.0 mg/kg/injection, schedule: Q01DX009 (ip), vehicle: water 110 % of control | dose: 12.5 mg/kg/injection, schedule: Q01DX009 (ip), vehicle: Klucel (hydroxypropylcellulose) (HPC) 109 % of control | dose: 20.0 mg/kg/injection, schedule: Q01DX009 (ip), vehicle: water 119 % of control

— PubChem BioAssay AID330 (DTP/NCI, 2004)
